Twelve molecules from PubChem BioAssay (NCI) can be followed below.

Some test systems named below: HL-60(TB) leukemia; SNB-78 CNS; SR leukemia; PC-3 prostate; K-562 leukemia; HOP-62 NSCLC; DU-145 prostate; HOP-92 NSCLC; T-47D breast; KM12 colon; NCI-H226 lung.
Holding throughout (test): NCI tumour cell line growth inhibition, 48 h

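Tested at 5 concentrations; 48 h exposure; 96-well plates; endpoints linearly interpolated, else capped at highest concentration. Abbreviation: GI50, concentration required for 50% inhibition of growth. TGI is the concentration that stops growth completely.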

`CNC=O`: the TGI is greater than 10000 µM in the test on HL-60(TB) leukemia; greater than 10000 µM with SNB-78 CNS; greater than 10000 µM with SR leukemia; greater than 10000 µM with PC-3 prostate; greater than 10000 µM in the test with K-562 leukemia; less than 3980 µM with HOP-62 NSCLC. Further, the TGI in the test with DU-145 prostate, in the test with HOP-92 NSCLC, in the test on T-47D breast, in the test with KM12 colon and with NCI-H226 lung was greater than 10000 µM in each case.

For the molecule `Nc1ccccc1Sc1ccc(Cl)cc1`, the TGI with HL-60(TB) leukemia is 53.3 µM; in the test on SNB-78 CNS it was 46.6 µM; in the test with SR leukemia it was 57.8 µM; in the test with K-562 leukemia it was 94.4 µM; in the test on HOP-62 NSCLC it was greater than 100 µM; with HOP-92 NSCLC it was 41.1 µM. The figures for the TGI in the test with KM12 colon and in the test with NCI-H226 lung were greater than 100 µM and 26.2 µM, respectively.

For the molecule `COc1cc(/C=C/C(=O)O)ccc1O`, the TGI in the test on HL-60(TB) leukemia, with SR leukemia, in the test with PC-3 prostate, with K-562 leukemia, with HOP-62 NSCLC and in the test with DU-145 prostate was greater than 100 µM in each case. Further, the TGI in the test on HOP-92 NSCLC, in the test with T-47D breast, in the test with KM12 colon and with NCI-H226 lung was greater than 100 µM each time.

Consider `COc1cc2cnc3c(c2cc1OC)Cc1cc2c(cc1-3)OCO2`, for which the GI50 in the test on SR leukemia is less than 0.01 µM; with PC-3 prostate, less than 0.01 µM; in the test on K-562 leukemia, less than 0.01 µM; in the test with HOP-62 NSCLC, less than 0.0268 µM; with DU-145 prostate it was 0.0338 µM; with HOP-92 NSCLC, greater than 93.6 µM. Further, the GI50 is 1.71 µM in the test with T-47D breast, less than 0.01 µM in the test with KM12 colon and 41.1 µM in the test with NCI-H226 lung. Further, the TGI in the test on SR leukemia is 0.0145 µM; with K-562 leukemia, greater than 100 µM; in the test with HOP-62 NSCLC it was 17.4 µM; in the test with DU-145 prostate it was greater than 54.1 µM; in the test on HOP-92 NSCLC it was greater than 100 µM; with T-47D breast, greater than 100 µM. Further, the TGI in the test on KM12 colon was greater than 100 µM; in the test with NCI-H226 lung, greater than 95.8 µM.

For `C/C(=C1/N=C(c2cc([N+](=O)[O-])ccc2Cl)N(C2=CC=C(Cl)CC2)C1=O)c1cc2ccccc2oc1=O`, the TGI in the test with HL-60(TB) leukemia, in the test with SNB-78 CNS, in the test on SR leukemia, with K-562 leukemia, in the test with HOP-62 NSCLC and in the test on KM12 colon was greater than 100 µM each time. Also, the TGI with NCI-H226 lung is greater than 100 µM.

On to `CCCCN(CCCC)c1ccc(N=Nc2ccc(S(=O)(=O)O)cc2)cc1`, for which the TGI in the test with HL-60(TB) leukemia is 53.1 µM; with PC-3 prostate, 97.1 µM; with K-562 leukemia, greater than 100 µM; in the test with DU-145 prostate, greater than 100 µM; with HOP-92 NSCLC it was 22.1 µM; with T-47D breast it was 55.5 µM. Further, the TGI with KM12 colon amounted to 32.8 µM.

Take `O=S(=O)(O)c1ccc(N=Nc2ccc(N=Nc3ccc(/C=C/c4ccc(N=[N+]([O-])c5ccc(/C=C/c6ccc(N=Nc7ccc(N=Nc8ccc(S(=O)(=O)O)cc8)c8ccccc78)cc6S(=O)(=O)O)c(S(=O)(=O)O)c5)cc4S(=O)(=O)O)c(S(=O)(=O)O)c3)c3ccccc23)cc1`: the TGI with HL-60(TB) leukemia, in the test on SNB-78 CNS, in the test on K-562 leukemia, in the test on HOP-62 NSCLC, in the test on HOP-92 NSCLC and with KM12 colon was greater than 100 µM each time. The molecule also returned a TGI in the test with NCI-H226 lung greater than 100 µM.

In the case of `CC1=CC[C@H](C)C(C)(C)C1/C=C/C(C)=C/CC[C@@]1(CO)[C@H](CCCO)/C(=C(/C)C=O)CC[C@]1(C)O` (some centres not stated), the TGI with HL-60(TB) leukemia turned out to be 7.79 µM; in the test on SNB-78 CNS, 27.5 µM; in the test on SR leukemia it was 24.3 µM; in the test on K-562 leukemia it was 11.8 µM; with KM12 colon it was 9.63 µM; in the test on NCI-H226 lung it was 14.4 µM.

Turning to `CC(=O)/C=C/c1c[nH]c(=O)[nH]c1=O`, the TGI with HL-60(TB) leukemia is 528 µM; with SNB-78 CNS, 756 µM; in the test on K-562 leukemia, 967 µM; with HOP-62 NSCLC, 765 µM; with HOP-92 NSCLC, 102 µM; in the test with KM12 colon, 439 µM. For the same molecule, the TGI in the test on NCI-H226 lung is 565 µM.

Regarding `C=CCN1C(=O)/C(=C/c2cccs2)N=C1SC1OC(COC(=O)c2ccccc2)C(OC(=O)c2ccccc2)C1OC(=O)c1ccccc1` (configuration not stated), the TGI in the test with HL-60(TB) leukemia, with SR leukemia, in the test with PC-3 prostate, with K-562 leukemia, in the test with HOP-62 NSCLC and with DU-145 prostate was greater than 100 µM throughout. The TGI in the test on HOP-92 NSCLC, in the test with KM12 colon and with NCI-H226 lung was greater than 100 µM each time.

Regarding `C=C1C(C[C@@H]2O[C@H]3C[C@H]4O[C@@]5(C[C@@H]6O[C@]7(C[C@H](C)[C@@H]8O[C@@H]9CC(C(O)CO)O[C@@H]9C[C@@H]8O7)C[C@H](C)[C@@H]6O5)C[C@H]4O[C@H]3[C@H](C)[C@H]2O)O[C@@H](CC[C@@H]2O[C@@H](CC[C@@]34CC5O[C@H]6C(O[C@H]7CC[C@H](CC(=O)OC)O[C@@H]7[C@@H]6O3)[C@H]5O4)CC2=C)C[C@H]1C` (some centres not stated), the TGI in the test on HL-60(TB) leukemia, in the test on SR leukemia, in the test with PC-3 prostate, in the test with K-562 leukemia, in the test on HOP-62 NSCLC and in the test on HOP-92 NSCLC was greater than 1 µM throughout. Besides, the figures for the TGI with T-47D breast and with NCI-H226 lung were greater than 1 µM and 0.0248 µM, respectively.

Take `C[C@@H]1CCN(C(=O)CC#N)C[C@@H]1N(C)c1ncnc2[nH]ccc12`: the GI50 is 40.6 µM with HOP-62 NSCLC; greater than 100 µM in the test on DU-145 prostate; greater than 100 µM with T-47D breast; 34 µM in the test on KM12 colon; 20.9 µM in the test on NCI-H226 lung. The TGI in the test with HOP-62 NSCLC, with DU-145 prostate, with T-47D breast, in the test with KM12 colon and in the test with NCI-H226 lung was greater than 100 µM throughout.
